In patent US7767658B2 (priority 2003, dated 2010):

Legend:
[1] = system: spleen cells secreting γ-interferon; format: in vivo, BALB/c mice; details: after restimulation with inactivated SARS virus; in response to some of the peptides used
[2] = system: spleen cells stimulated with the whole inactivated virus; format: in vivo, BALB/c mice; details: after stimulation with inactivated virus; mice given ethyl DOPC in addition to the antigen

CCCCCCCC/C=C\CCCCCCCC(=O)OC[C@@H](COP(=O)(OCC)OCC[N+](C)(C)C)OC(=O)CCCCCCC/C=C\CCCCCCCC (stereo partly drawn) [ethyl DOPC, 1,2-dioleoyl-sn-glycero-3-ethylphosphocholine]
production of γ-interferon (ELISPOT after restimulation) [1]: increased | production of IL-5 (in words) [2]: not clearly modified | production of γ-IFN (in words) [2]: considerably increased
